Experimental data: patent publication US5858985A, “Treatment of asthma with fructose-1,6-diphosphate” (priority 1997, dated 1999)
Where “and” joins values, the source holds several entries; their conditions need not be identical. Equal values may be shown once. Entries after “also recorded” stand apart in the source; their conditions may differ. Read-outs that look alike come from different tables or passages of the source.

What was measured:
human volunteers = test: lung function (peak expiratory flow rate) in healthy human volunteers after nebulized inhalation; type: in vivo
Description: When adjusted to deliver 56-68 L/min with a 5-6 L/min oxygen flow, the final oxygen content was 28%. The output tube from the nebulizer was connected to a standard face mask, which was placed on the face of the subject. The bottle of the nebulizer contained 100 ml of the FDP solution. The FDP dose delivered in the mist, during the 5 consecutive breaths, was calculated to be about 12 mg.
Prior to the FDP inhalation, in each volunteer, 3 consecutive peak expiratory flow rate (PEFR) measurements were made with the aid of an Astech Peak Flow Meter (Center Laboratories, Port Washington, N.Y. 11050). Briefly, these tests involved having each volunteer take as deep a breath as possible, and then blow as hard as possible into the meter. This was done over a period of a couple of minutes, giving the volunteer some time to catch their breath before and after each effort. The mean of these three measurements was considered as the baseline PEFR value for that person. Baseline heart rates, systolic and diastolic blood pressures, and body temperatures were also measured.
FDP inhalations (5 breaths in each set) were then made, approximately 15, 30, 45, 75, 105 and 165 minutes after the baseline measurements had been made. On several occasions, FDP inhalations were also made, 2 and 5 minutes after the baseline measurements were taken. After each such inhalation, three different expirations were measured, all within a couple of minutes after the FDP inhalation had been completed. The various measurements made after FDP inhalation were compared with the baseline values, before FDP administration. The t-test was used to compare paired observations, and differences were considered significant only when the two-tailed p value was <0.05.

[1] = tested on: Sprague-Dawley rats injected with compound 48/80; test: compound 48/80-induced shock (histamine release by mast cells) in rats; type: in vivo, rat
Description: As noted above, the release of histamine by mast cells plays a significant role in aggravating asthma attacks. FDP was evaluated to determine whether it could help suppress histamine release by mast cells, in tests that use a compound called "48/80", which is known to trigger the release of histamine by mast cells. This compound, if injected into an animal at an appropriate dosage, will trigger sufficient histamine release to send the animal into anaphylactic shock, which poses a lethal challenge. Useful physiological measurements can be made during the test period, and if mortality is studied as an endpoint, an animal is deemed to survive if it lives for 48 hours after injection of the 48/80 compound.
Anesthetized male Sprague-Dawley rats (n=20) weighing 448±7.4 gm were randomly assigned into 2 groups. Animals in the FDP-treated group were injected intraperitoneally (IP) with a 10% (w/v) solution of FDP in water, at a dosage of 2.5 gm/kg (i.e., 2.5 grams of FDP per kilogram of body weight). […] Thirty minutes later, all rats were injected IP with compound 48/80, at 5 mg/kg.

[2] = tested on: membrane-bonded Na+--K+ ATPase enzymes; type: biochemical, rat; conditions: pretreatment with 500 μM FDP
Description: Oleander toxins were prepared by air-drying leaves from red-flowering Nerium oleander plants for 4 days, pulverizing the leaves to a fine powder in a blender, and extracting the leaves in a 95% ethyl alcohol solution for 10 days. After extraction, the tincture was filtered, and part of the alcohol solvent was removed by flash evaporation, to a volume where 1 gram of crude drug was equal to 1 ml of alcohol solution. The extract was stored as a stock solution at 0° C., and periodically analyzed for alkaloid content by high pressure liquid chromatography, using oleandrin as an external standard. […]
When ready for use, intact isolated rat hearts were transferred to ice-cold homogenizing medium (50 mM Na2 HPO4, 10 mM Na2 EDTA, and 25 mM NaF, pH 7.4). […]
The pellet obtained after this centrifugation, consisting of crude membrane vesicles, was suspended in a storage buffer (30 mM histidine, 0.25 M sucrose, 10 mM EDTA, and 10 mM NaF, pH 7.5) and stored at -80° C. until use. Protein content was determined using a Biorad protein assay kit, with gamma globulin as a standard.
The Na^+ --K^+ ATPase activity levels for these sarcolemmal membrane preparations was determined calorimetrically by measuring how much inorganic phosphate (Pi) was liberated when the ATPase enzyme hydrolyzed ATP to release phosphate groups. […]

rat T-lymphocyte = test: inhibition of T-lymphocyte proliferation after stimulation with Con-A ((3H)-thymidine incorporation); type: cell-based
Description: Lymphocyte cells were isolated either from human venous blood or rat spleen. The cells were suspended in Dulbecco's media. A manual cell count was done using 0.1 ml of Trypan blue and 0.1 ml of the cell media mixture. […] Tissue culture multi-well plates were used for incubation and in each well 0.1 ml of cell suspension was placed. To the FDP treatment wells (in triplicate) were added 0.1 ml of FDP from 10% stock solution, in serial dilutions which included 1:10, 1:100, 1:250, 1:500; 1:1000, and 1:10000). Cyclosporine treatment wells received 0.1 ml cyclosporine A, at various concentrations including 500 ng/ml, 50 ng/ml; 5 ng/ml and 0.5 ng/ml. All wells except control wells received concanavalin A (conA) at […] (0.01 ml). The final volume for all wells was 0.21 ml.
After incubation, the cells were pulsed in 5% Co2 at 37° C. with 1 μCi of (^3 H)-thymidine (i.e., the cells were incubated for a controlled period of time with thymidine, one of the building blocks of DNA, which contained tritium, a radioactive isotope of hydrogen). The cells were harvested, and washed to remove any tritiated thymidine that had not been incorporated into new DNA. The radioactivity levels of the treated cells were then measured, using a scintillation counter. The results, in Table 2, are reported as counts/min.

[3] = tested on: RNA encoding the IL-2 protein; test: IL-2 RNA expression in ConA-stimulated lymphocytes (reverse transcription, PCR, densitometry); type: cell-based; conditions: rat lymphocytes pre-treated with FDP, ConA stimulation, 5 days of incubation
Description: The Applicant also investigated the expression of cytokines by T-lymphocytes. Isolated lymphocytes were obtained from rats, and incubated with stimulation by ConA treatment, as described above; treated cells were pre-treated with FDP, as described above, while control cells were not treated with FDP. After 5 days of incubation, RNA was extracted from the lymphocytes, using RNA-stat60. The integrity of RNA samples was evaluated by use of agarose-formaldehyde gel electrophoresis, and its quantity was determined spectrophotometrically.
The RNA was transcribed into complementary DNA (cDNA), using a reverse transcriptase enzyme. 10 μl of solution containing 1 μg of total cellular RNA was heated at 65° C. for 10 min, and then chilled on ice. To this solution was added 10 μl of a mixture containing 2× reverse transcriptase buffer (100 mM Tris-HCl, pH 8.3, 150 mM KC1, 6 MM MgCl2), 1 μg oligo(dT)12-18, 100 μg/ml of acetylated bovine serum albumin, 0.5 mM mixed deoxynucleotides (dNTP), 10 units of RNAasin, and 100 units of MMLV reverse transcriptase enzyme. The mixture was incubated for 45 min at 35° C., then chilled on ice.
The cDNA sequences for three specific interleukins (IL-1, IL-2, and IL-6) were then amplified, using polymerase chain reaction (PCR) techniques, using previously published sense and anti-sense primer sequences for rat IL-1, rat IL-2, and rat IL-6. […]

human IL-2 = test: interleukin-2 production by human T-cells stimulated by Con-A (ELISA); type: cell-based; conditions: all tested FDP concentrations, result in words
Description: In addition, the amounts of IL-2 released by human T-cells were also evaluated, using ConA stimulation in the presence or absence of FDP. These tests used a commercially available human immunoassay kit (Inter Test-2X IL-2 Elisa Kit, sold by Genzyme Corp., Cambridge, Mass.) which uses monoclonal antibodies that bind specifically to human IL-2. The results, in Table 3, indicate that FDP, at all tested concentrations, abolished IL-2 production by the stimulated human T-lymphocytes. IL-2 concentrations are expressed in picograms per milliliter of media.

[4] = tested on: mongrel dogs challenged with methacholine; test: acute experimental asthma (bronchospasm) induced in dogs by methacholine inhalation; type: in vivo, dog
[5] = tested on: human test subject with chronic cough; test: repeated FDP inhalation in a volunteer with chronic cough secondary to allergic bronchitis; type: in vivo
Text: This subject participated in several studies over 10 days. Prior to FDP inhalation, their baseline PEFR was 390 L/min. This value increased with each and every FDP treatment.

[6] = one subject, reported after 10 days of FDP inhalations

albuterol sulfate [reference compound]
PEFR (human volunteers; albuterol sulfate inhalation solution 0.005% w/v in 0.9% NaCl, two occasions, identical procedures): did not induce any significant change

O=C(COP(=O)(O)O)[C@@H](O)[C@H](O)[C@H](O)COP(=O)(O)O [FDP, fructose-1,6-diphosphate]
arterial pressure ([1]; FDP 2.5 gm/kg IP 30 min before compound 48/80 5 mg/kg IP, vs saline group, P<0.005, FIG. 1): significantly higher than in the saline group | mortality ([1]; FDP 2.5 gm/kg IP before compound 48/80 5 mg/kg IP, survival = 48 hours, saline group 100%, P<0.001): 20% | plasma potassium ([1]; FDP 2.5 gm/kg IP before compound 48/80 5 mg/kg IP, vs saline group, P<0.01, FIG. 2, 5 mg/kg): remained within normal values; also recorded: lower | average arterial partial pressure of oxygen (PO2) ([1]; FDP 2.5 gm/kg IP before compound 48/80, saline group 98±9.2): 121±6.1 mm Hg | Na+--K+ ATPase activity ([2]; oleander extract 1.0 mg): 19.32 ± 0.62 micromoles of inorganic phosph | Na+--K+ ATPase activity ([2]; oleander extract 2.0 mg): 15.75 ± 0.39 micromoles of inorganic phosph | Activation Index (rat T-lymphocyte; Con-A plus 1:10 dilution of 10% FDP stock, Con-A alone 30718 ± 4316, no Con-A 527 ± 139): 101 ± 16 counts/min | Activation Index (rat T-lymphocyte; Con-A plus 1:100 dilution of 10% FDP stock): 190 ± 42 counts/min | Activation Index (rat T-lymphocyte; Con-A plus 1:250 dilution of 10% FDP stock): 383 ± 170 counts/min | Activation Index (rat T-lymphocyte; Con-A plus 1:500 dilution of 10% FDP stock): 3592 ± 974 counts/min | Activation Index (rat T-lymphocyte; Con-A plus 1:1000 dilution of 10% FDP stock): 12288 ± 1880 counts/min | Activation Index (rat T-lymphocyte; Con-A plus 1:10,000 dilution of 10% FDP stock): 19046 ± 3237 counts/min | ConA-induced activation and proliferation of T-cells (rat T-lymphocyte; result in words, cyclosporine A tested at 0.5 to 500 ng/ml): able to block ConA activation of the lymphocytes; also recorded: inhibited the ConA-induced activation and proliferation of T-cells in a dose dependent manner | RNA encoding the IL-2 protein [3]: no detectable levels of RNA encoding the IL-2 protein | IL-2 production by the stimulated human T-lymphocytes (human IL-2): no detectable IL-2 | arterial blood oxygen partial pressure, Baseline ([4]; dogs pre-treated with aerosolized 10% FDP for 3 minutes, before methacholine): 89 ± 1.74 mm Hg | arterial blood oxygen partial pressure (PaO2), 5 min ([4]; dogs pre-treated with aerosolized 10% FDP, 5 min after methacholine, controls 47 ± 2.85, p = 0.007): 70±5.62 mm Hg and 69 ± 6.49 mm Hg | arterial blood oxygen partial pressure (PaO2), 15 min ([4]; dogs pre-treated with aerosolized 10% FDP, 15 min after methacholine, controls 53 ± 3.86, p < 0.001): 81 ± 3.36 mm Hg | PCO2 ([4]; dogs, methacholine challenge with FDP treatment): no consistent alterations | PaO2 level at 5 minutes after FDP treatment ([4]; five dogs treated with FDP after (not before) methacholine, p<0.006): 64±4.26 mm Hg | PaO2 level at 30 minutes after FDP treatment ([4]; five dogs treated with FDP after (not before) methacholine, p<0.01): 80±4.04 mm Hg | PaO2 level at 15 minutes after FDP treatment ([4]; five dogs treated with FDP after (not before) methacholine, p<0.02): 72±1.84 mm Hg | side effects (human volunteers; all tests on volunteers, other than decreased heart rates and increased pulmonary ventilation rates): no side effects were noticed | blood pressure or body temperature (human volunteers; five volunteers, 10% FDP nebulized): did not elicit any changes | mean peak expiratory flow rate (PEFR) following FDP administration (human volunteers; five volunteers, 10% FDP nebulized, 5 breaths (about 12 mg), baseline 471±29.6, P<0.005): 529 ± 35.6 L/min | PEFR after inhalation session (human volunteers; one volunteer, 20% FDP solution for 10 min, 700 mg inhaled, baseline 616): 667 L/min | side effects (human volunteers; one volunteer, high dosages (700 to 750 mg, 20% or 10% solution, ten minute inhalation)): no side effects were detected | PEFR at 10 days after the first inhalation ([5]; one subject with chronic cough, repeated FDP inhalation, baseline 390, P<0.01): 520 L/min | breathing [5, 6]: substantially improved | coughing [5, 6]: nearly disappeared
